Source: ChEMBL document CHEMBL5370618, “Hypoxia-Directed and Self-Immolative Theranostic Agent: Imaging and Treatment of Cancer and Bacterial Infections” (J Med Chem, 2023)
The source made the active and inactive calls. No cut-off for these calls is given here.

What was measured:
[1] = Prodrug conversion in Escherichia coli assessed as nitroreductase mediated drug degradation by measuring fold increase in fluorescence intensity at 10 uM by fluorescence analysis relative to control; type: ADME
[2] = Prodrug conversion in human serum assessed as trypsin mediated drug degradation by measuring fluorescence production at 10 uM incubated for 30 mins by fluorescence spectroscopic analysis; type: ADME, cell-free; conditions: 0.5 h
[3] = Prodrug conversion in human serum assessed as H2O2 mediated drug degradation by measuring fluorescence production at 10 uM incubated for 30 mins by fluorescence spectroscopic analysis; type: ADME, cell-free; conditions: 0.5 h
[4] = Prodrug conversion in human serum assessed as pepsin mediated drug degradation by measuring fluorescence production at 10 uM incubated for 30 mins by fluorescence spectroscopic analysis; type: ADME, cell-free; conditions: 0.5 h
Escherichia coli = test: Antibacterial activity against Escherichia coli assessed as reduction in bacterial cell viability at 250 to 500 uM incubated for 24 hrs by CFU assay; type: functional, organism-based; conditions: dose 250-500 µM
[5] = Prodrug conversion in human serum assessed as glutamic acid mediated drug degradation by measuring fluorescence production at 10 uM incubated for 30 mins by fluorescence spectroscopic analysis; type: ADME, cell-free; conditions: 0.5 h
[6] = Prodrug conversion in human serum assessed as HNO mediated drug degradation by measuring fluorescence production at 10 uM incubated for 30 mins by fluorescence spectroscopic analysis; type: ADME, cell-free; conditions: 0.5 h
Bacillus subtilis = test: Antibacterial activity against Bacillus subtilis assessed as reduction in bacterial cell viability at 250 to 500 uM incubated for 24 hrs by CFU assay; type: functional, organism-based; conditions: dose 250-500 µM
[7] = Prodrug conversion in Bacillus subtilis assessed as nitroreductase mediated drug degradation by measuring increase in fluorescence intensity at 10 uM in presence of dicoumarol by fluorescence analysis; type: ADME
[8] = Prodrug conversion in Escherichia coli assessed as nitroreductase mediated drug degradation by measuring increase in fluorescence intensity at 10 uM in presence of dicoumarol by fluorescence analysis; type: ADME
[9] = Prodrug conversion in human serum assessed as GSH mediated drug degradation by measuring fluorescence production at 10 uM incubated for 30 mins by fluorescence spectroscopic analysis; type: ADME, cell-free; conditions: 0.5 h
[10] = Biodistribution in spleen of BALB/c mouse xenografted with human hypoxic A549 cells assessed as drug uptake at 2.5 mg/kg,iv and measured after 29 hrs by fluorescence imaging analysis; type: ADME, organism-based; conditions: in vivo
[11] = Prodrug conversion in tumor of BALB/c mouse xenografted with human hypoxic A549 cells assessed as fold increase in fluorescence intensity at 2.5 mg/kg,iv and measured after 29 hrs by fluorescence imaging analysis relative to control; type: ADME, organism-based, Neoplasm; conditions: in vivo
[12] = Biodistribution in intestine of BALB/c mouse xenografted with human hypoxic A549 cells assessed as drug uptake at 2.5 mg/kg,iv and measured after 29 hrs by fluorescence imaging analysis; type: ADME, organism-based; conditions: in vivo
[13] = Prodrug conversion in pH 4 to 8 buffer assessed as Escherichia coli nitroreductase mediated drug degradation by measuring fluorescence intensity at 10 uM incubated for 30 mins by fluorescence spectroscopic analysis; type: ADME; conditions: isolated protein, pH 4, 0.5 h
[14] = Prodrug conversion in human serum assessed as hydroxyl radical mediated drug degradation by measuring fluorescence production at 10 uM incubated for 30 mins by fluorescence spectroscopic analysis; type: ADME, cell-free; conditions: 0.5 h
[15] = Prodrug conversion in human serum assessed as serine mediated drug degradation by measuring fluorescence production at 10 uM incubated for 30 mins by fluorescence spectroscopic analysis; type: ADME, cell-free; conditions: 0.5 h
[16] = Prodrug conversion in PBS at 7.4 assessed as Escherichia coli nitroreductase mediated drug degradation by measuring norfloxacin metabolite formation at 10 uM incubated for 30 mins by HRMS analysis; type: ADME; conditions: isolated protein, pH 7.4, 0.5 h
[17] = Prodrug conversion in human serum assessed as Fe2+ ion mediated drug degradation by measuring fluorescence production at 10 uM incubated for 30 mins by fluorescence spectroscopic analysis; type: ADME, cell-free; conditions: 0.5 h
[18] = Biodistribution in kidney of BALB/c mouse xenografted with human hypoxic A549 cells assessed as drug uptake at 2.5 mg/kg,iv and measured after 29 hrs by fluorescence imaging analysis; type: ADME, organism-based; conditions: in vivo
[19] = Prodrug conversion in human serum assessed as arginine mediated drug degradation by measuring fluorescence production at 10 uM incubated for 30 mins by fluorescence spectroscopic analysis; type: ADME, cell-free; conditions: 0.5 h
[20] = Prodrug conversion in PBS at pH 7.4 assessed as Escherichia coli nitroreductase mediated drug degradation by measuring change in fluorescence intensity at 545nm at 10 uM incubated for 20 mins by fluorescence spectroscopic analysis; type: ADME; conditions: isolated protein, pH 7.4, 20 min
[21] = Prodrug conversion in BALB/c mouse xenografted with human hypoxic A549 cells assessed as rhodamine release by measuring increase in fluorescence intensity in tumor at 2.5 mg/kg,iv and measured after 2.5 hrs by fluorescence imaging analysis; type: ADME, organism-based; conditions: in vivo
[22] = Prodrug conversion in human serum assessed as FADH2 mediated drug degradation by measuring fluorescence production at 10 uM incubated for 30 mins by fluorescence spectroscopic analysis; type: ADME, cell-free; conditions: 0.5 h
[23] = Prodrug conversion in PBS at 7.4 assessed as Escherichia coli nitroreductase mediated drug degradation by measuring increase in fluorescence emission at 545nm at 10 uM in presence of NADH as cofactor by fluorescence spectroscopic analysis; type: ADME; conditions: isolated protein, pH 7.4, 10 µM
[24] = Prodrug conversion in human serum assessed as cysteine mediated drug degradation by measuring fluorescence production at 10 uM incubated for 30 mins by fluorescence spectroscopic analysis; type: ADME, cell-free; conditions: 0.5 h
[25] = Prodrug conversion in human serum assessed as glutathione mediated drug degradation by measuring fluorescence production at 10 uM incubated for 30 mins by fluorescence spectroscopic analysis; type: ADME, cell-free; conditions: 0.5 h
[26] = Prodrug conversion in BALB/c mouse xenografted with human hypoxic A549 cells assessed as rhodamine release by measuring increase in fluorescence intensity in body at 2.5 mg/kg,iv and measured upto 29 hrs by fluorescence imaging analysis; type: ADME, organism-based; conditions: in vivo
[27] = Biodistribution in liver of BALB/c mouse xenografted with human hypoxic A549 cells assessed as drug uptake at 2.5 mg/kg,iv and measured after 29 hrs by fluorescence imaging analysis; type: ADME, organism-based; conditions: in vivo
[28] = Biodistribution in stomach of BALB/c mouse xenografted with human hypoxic A549 cells assessed as drug uptake at 2.5 mg/kg,iv and measured after 29 hrs by fluorescence imaging analysis; type: ADME, organism-based; conditions: in vivo
[29] = Prodrug conversion in PBS at pH 7.4 assessed as Escherichia coli nitroreductase mediated drug degradation by measuring increase in maximum absorption at 522nm at 5 uM in presence of NADH as cofactor by UV-Vis spectroscopic analysis; type: ADME; conditions: isolated protein, pH 7.4, 5 µM
[30] = Prodrug conversion in BALB/c mouse xenografted with human hypoxic A549 cells assessed as rhodamine release by measuring fold increase in fluorescence intensity in tumor at 2.5 mg/kg,iv and measured after 17 hrs by fluorescence imaging analysis relative to control; type: ADME, organism-based; conditions: in vivo
[31] = Prodrug conversion in Bacillus subtilis assessed as nitroreductase mediated drug degradation by measuring increase in fluorescence intensity at 10 uM by fluorescence analysis; type: ADME
[32] = Biodistribution in heart of BALB/c mouse xenografted with human hypoxic A549 cells assessed as drug uptake at 2.5 mg/kg,iv and measured after 29 hrs by fluorescence imaging analysis; type: ADME, organism-based; conditions: in vivo
[33] = Prodrug conversion in human serum assessed as Cu2+ ion mediated drug degradation by measuring fluorescence production at 10 uM incubated for 30 mins by fluorescence spectroscopic analysis; type: ADME, cell-free; conditions: 0.5 h
[34] = Biodistribution in tumor of BALB/c mouse xenografted with human hypoxic A549 cells assessed as drug uptake at 2.5 mg/kg,iv and measured after 29 hrs by fluorescence imaging analysis; type: ADME, organism-based, Neoplasm; conditions: in vivo
[35] = Prodrug conversion in human serum assessed as Fe3+ ion mediated drug degradation by measuring fluorescence production at 10 uM incubated for 30 mins by fluorescence spectroscopic analysis; type: ADME, cell-free; conditions: 0.5 h
[36] = Prodrug conversion in human serum assessed as NO3- ion mediated drug degradation by measuring fluorescence production at 10 uM incubated for 30 mins by fluorescence spectroscopic analysis; type: ADME, cell-free; conditions: 0.5 h
[37] = Prodrug conversion in human serum assessed as tyrosinase mediated drug degradation by measuring fluorescence production at 10 uM incubated for 30 mins by fluorescence spectroscopic analysis; type: ADME, cell-free; conditions: 0.5 h
[38] = Prodrug conversion in human serum assessed as Zn2+ ion mediated drug degradation by measuring fluorescence production at 10 uM incubated for 30 mins by fluorescence spectroscopic analysis; type: ADME, cell-free; conditions: 0.5 h
[39] = Prodrug conversion in human serum assessed as […] mediated drug degradation by measuring fluorescence production at 10 uM incubated for 30 mins by fluorescence spectroscopic analysis; type: ADME, cell-free; conditions: 0.5 h
[40] = Biodistribution in tumor of BALB/c mouse xenografted with human hypoxic A549 cells assessed as fold increase in drug uptake at 2.5 mg/kg,iv and measured after 29 hrs by fluorescence imaging analysis relative to control; type: ADME, organism-based, Neoplasm; conditions: in vivo
[41] = Prodrug conversion in human serum assessed as NO mediated drug degradation by measuring fluorescence production at 10 uM incubated for 30 mins by fluorescence spectroscopic analysis; type: ADME, cell-free; conditions: 0.5 h
[42] = Prodrug conversion in PBS at 7.4 assessed as Escherichia coli nitroreductase mediated drug degradation by measuring rhodamine metabolite formation at 10 uM incubated for 30 mins by HRMS analysis; type: ADME; conditions: isolated protein, pH 7.4, 0.5 h
[43] = Prodrug conversion in human serum assessed as ascorbic acid mediated drug degradation by measuring fluorescence production at 10 uM incubated for 30 mins by fluorescence spectroscopic analysis; type: ADME, cell-free; conditions: 0.5 h
[44] = Prodrug conversion in BALB/c mouse xenografted with human hypoxic A549 cells assessed as rhodamine release by measuring increase in fluorescence intensity in tumor at 2.5 mg/kg,iv and measured after 29 hrs by fluorescence imaging analysis; type: ADME, organism-based; conditions: in vivo
[45] = Prodrug conversion in Escherichia coli assessed as nitroreductase mediated drug degradation by measuring increase in fluorescence intensity at 10 uM by fluorescence analysis relative to control; type: ADME

CCN(CC)c1ccc2c(c1)Oc1cc(OC(=O)OCc3cc(C)cc(COC(=O)c4cn(CC)c5cc(N6CCNCC6)c(F)cc5c4=O)c3OCc3ccc([N+](=O)[O-])cc3)ccc1C21OC(=O)c2ccccc21 (centres undefined)
fold change (FC) [1]: 3.5 | Drug metabolism [2]: Metabolite_Notdetected | Drug metabolism [3]: Metabolite_Notdetected | Drug metabolism [4]: Metabolite_Notdetected | Activity (Escherichia coli): Active | Drug metabolism [5]: Metabolite_Notdetected | Drug metabolism [6]: Metabolite_Notdetected | Activity (Bacillus subtilis): Dose-Dependent Effect | Drug metabolism [7]: Metabolite_Notdetected | Drug metabolism [8]: Metabolite_Notdetected | Drug metabolism [9]: Metabolite_Notdetected | Drug uptake [10]: Not Active | fold change (FC) [11]: 4.5 | Drug uptake [12]: Active | Drug metabolism [13]: Metabolite_Detected | Drug metabolism [14]: Metabolite_Notdetected | Drug metabolism [15]: Metabolite_Notdetected | Drug metabolism [16]: Metabolite_Detected | Drug metabolism [17]: Metabolite_Notdetected | Drug uptake [18]: Not Active | Drug metabolism [19]: Metabolite_Notdetected | Drug metabolism [20]: Metabolite_Detected | Drug metabolism [21]: Metabolite_Detected | Drug metabolism [22]: Metabolite_Notdetected | Drug metabolism [23]: Metabolite_Detected | Drug metabolism [24]: Metabolite_Notdetected | Drug metabolism [25]: Metabolite_Notdetected | Drug metabolism [26]: Metabolite_Detected | Drug uptake [27]: Not Active | Drug uptake [28]: Active | Drug metabolism [29]: Metabolite_Detected | fold change (FC) [30]: 4.1 | Drug metabolism [31]: Metabolite_Detected | Drug uptake [32]: Not Active | Drug metabolism [33]: Metabolite_Notdetected | Drug uptake [34]: Active | Drug metabolism [35]: Metabolite_Notdetected | Drug metabolism [36]: Metabolite_Notdetected | Drug metabolism [37]: Metabolite_Notdetected | Drug metabolism [38]: Metabolite_Notdetected | Drug metabolism [39]: Metabolite_Notdetected | fold change (FC) [40]: 4 | Drug metabolism [41]: Metabolite_Notdetected | Drug metabolism [42]: Metabolite_Detected | Drug metabolism [43]: Metabolite_Notdetected | Drug metabolism [44]: Metabolite_Detected

CCn1cc(C(=O)O)c(=O)c2cc(F)c(N3CCNCC3)cc21
Activity (Escherichia coli): Active

CCN(CC)c1ccc2c(c1)Oc1cc(OC(=O)OCc3cc(C)cc(COC(=O)c4cn(CC)c5cc(N6CCNCC6)c(F)cc5c4=O)c3OCc3ccccc3)ccc1C21OC(=O)c2ccccc21 (centres undefined)
Activity (Escherichia coli): Active | Activity (Bacillus subtilis): Dose-Dependent Effect | Drug metabolism [45]: Metabolite_Notdetected | Drug metabolism [29]: Metabolite_Notdetected | Drug metabolism [31]: Metabolite_Notdetected | Drug uptake [34]: Not Active | Drug metabolism [44]: Metabolite_Notdetected
